Columns and labels:
human PDHK1 (hPDHK1) = human PDHK1 (hPDHK1) (Homo sapiens (Human), UniProt Q15118); experiment: Inhibitory action of PDHK1 activity in vitro (residual PDH activity after PDHK reaction); assay type: biochemical; conditions: for IC50: PDH/hPDHK1 complex solution, PDHK reaction at room temperature for 45 min, NADH absorbance at 340 nm, read-out: hPDK1 IC50; for inhibition at 0.003 µM: at 3 nmol/L, shown when IC50 value could not be calculated, read-out: hPDHK1 inhibitory rate at the lowest concentration of the test compound
Experimental: (§1) The inhibitory action of PDHK activity was assessed indirectly by measuring the residual PDH activity after PDHK reaction in the presence of a test compound.
(Inhibitory Action of PDHK1 Activity)
In the case of human PDHK1 (hPDHK1, NCBI Reference Database Accession number NM_002610.3), a 1.3 kbp fragment encoding this protein was isolated from human liver cDNA by polymerase chain reaction (PCR). Modified hPDHK1 cDNA wherein FLAG-Tag sequence was added to the N terminus was prepared by PCR and ligated to the NdeI/EcoRI site of pET-17b vector (Merck MGaA, model number 69663-3). The recombinant construct was transformed into Escherichia coli DH5a (TOYOBO, model number DNA-903). The recombinant clones were identified, and plasmid DNA was isolated and subjected to the DNA sequence analysis. One clone which had the expected nucleic acid sequence was selected for expression work.
For expression of hPDHK1 activity, Escherichia coli strain BL21(DE3) cells (Merck KGaA, model number 69450-4) were transformed with the pET17b vector containing modified hPDHK1 cDNA. The Escherichia coli were grown to an optical density 0.6 ([…]) at 30° C. Protein expression was induced by the addition of 500 μmol/L isopropyl-β-thiogalactopyranoside. The Escherichia coli were cultured at 20° C. for 17-18 hr and harvested by centrifugation.
The harvested Escherichia coli was resuspended in a suspension buffer (20 mmol/L N-(2-hydroxyethyl)piperazine-N′-2-ethanesulfonic acid-sodium hydroxide (HEPES-NaOH), 500 mmol/L sodium chloride, 1% ethylene glycol, and 0.1% polyoxyethylene-polyoxypropylene block copolymer (Pluronic F-68), complete, EDTA-free (pH 8.0)) and disrupted by a microfluidizer M-110H (MIZUHO INDUSTRIAL CO., LTD.) or ultrasonication. The precipitate was removed by centrifugation and the supernatant was added to DDDDK-tagged Protein PURIFICATION GEL (MBL, model number 3329). DDDDK-tagged Protein PURIFICATION GEL was washed with a washing buffer (20 mmol/L HEPES-NaOH, 500 mmol/L sodium chloride, 1% ethylene glycol, 0.1% pluronic F-68 (pH 8.0)) and the bound protein was eluted with elution buffer 1 (20 mmol/L HEPES-NaOH, 100 μg/mL peptide (amino acid sequence DYKDDDDK) (SEQ ID NO: 1), 500 mmol/L sodium chloride, 1% ethylene glycol, 0.1% pluronic F-68 (pH 8.0)).
The eluted fractions containing FLAG-Tagged protein were pooled, concentrated by an ultrafiltration method, added to a gel filtration column (HiLoad 26/60 Superdex 200 (GE Healthcare, model number 17-1070-01)), and eluted with elution buffer 2 (20 mmol/L HEPES-NaOH, 150 mmol/L sodium chloride, 0.5 mmol/L ethylenediaminetetraacetic acid (EDTA), 1% ethylene glycol, 0.1% pluronic F-68 (pH 8.0)). The eluted fractions were pooled and preserved at −80° C.
(§2) 0.025 U/mL PDH (porcine heart PDH complex, Sigma P7032) and 0.5 μg/mL hPDHK1 were mixed in an assay buffer (50 mmol/L 3-morpholinopropanesulfonic acid (pH 7.0), 20 mmol/L dipotassium hydrogen phosphate, 60 mmol/L potassium chloride, 2 mmol/L magnesium chloride, 0.4 mmol/L EDTA, 0.2% poloxamer, 2 mmol/L dithiothreitol), and the mixture was incubated at 4° C. overnight to obtain a PDH/hPDHK1 complex solution. In the assay buffer, 0.025 U/mL PDH was mixed and incubated at 4° C. overnight to prepare a PDH solution.
The test compounds were diluted with dimethyl sulfoxide (DMSO). To measure an inhibitory action of the test compound on the PDHK activity in the PDH/hPDHK1 complex solution, PDH/hPDHK1 complex solution (20 μL), test compound (1.5 μL) and 0.353 μmol/L ATP (diluted with assay buffer) (8.5 μL) were added to a 384 well microplate (Greiner Bio-One 781801) and PDHK reaction was performed at room temperature for 45 min (test compound well). DMSO (1.5 μL) was added to control wells instead of test compound. In addition, DMSO (1.5 μL) was added to blank wells instead of the test compound, and PDH solution was added instead of the PDH/hPDHK1 complex solution. […]

human PDHK2 (hPDHK2) = human PDHK2 (hPDHK2) (Homo sapiens (Human), UniProt Q15119); experiment: Inhibitory action of PDHK2 activity in vitro (residual PDH activity after PDHK reaction); assay type: biochemical; conditions: PDH/hPDHK2 complex solution, PDHK reaction at room temperature for 45 min, NADH absorbance at 340 nm; read-out: kPDK2 IC50
Experimental: as §1
(Inhibitory Action of PDHK2 Activity)
In the case of human PDHK2 (hPDHK2, NCBI Reference Database Accession number NM_002611.4), modified hPDHK2 cDNA wherein FLAG-Tag sequence was added to the N terminus of hPDHK2 cDNA clone (pReceiver-M01/PDK2-GeneCopoeia) as the base was prepared by PCR and ligated to the NdeI/EcoRI site of pET-17b vector. The recombinant construct was transformed into Escherichia coli DH5a. The recombinant clones were identified, and plasmid DNA was isolated and subjected to the DNA sequence analysis. One clone which had the expected nucleic acid sequence was selected for expression work.
For expression of hPDHK2 activity, Escherichia coli strain BL21(DE3) cells were transformed with the pET17b vector containing modified hPDHK2 cDNA. The Escherichia coli were grown to an optical density 0.6 ([…]) at 30° C. Protein expression was induced by the addition of 500 μmol/L isopropyl-β-thiogalactopyranoside. The Escherichia coli were cultured at 20° C. for 17-18 hr and harvested by centrifugation. The harvested Escherichia coli was resuspended in a suspension buffer (20 mmol/L HEPES-NaOH, 500 mmol/L sodium chloride, 1% ethylene glycol, 0.1% pluronic F-68 (pH 8.0), cOmplete, EDTA-free (pH 8.0)), and disrupted by a microfluidizer. The precipitate was removed by centrifugation and the supernatant was added to DDDDK-tagged Protein PURIFICATION GEL. DDDDK-tagged Protein PURIFICATION GEL was washed with a washing buffer (20 mmol/L HEPES-NaOH, 500 mmol/L sodium chloride, 1% ethylene glycol, 0.1% pluronic F-68 (pH 8.0)) and the bound protein was eluted with elution buffer 1 (20 mmol/L HEPES-NaOH, 100 μg/mL peptide (amino acid sequence DYKDDDDK) (SEQ ID NO: 1), 500 mmol/L sodium chloride, 1% ethylene glycol, 0.1% pluronic F-68 (pH 8.0)). The eluted fractions containing FLAG-Tagged protein were pooled, concentrated by an ultrafiltration method, added to a gel filtration column (HiLoad 26/60 Superdex 200), and eluted with elution buffer 2 (20 mmol/L HEPES-NaOH, 150 mmol/L sodium chloride, 0.5 mmol/L ethylenediaminetetraacetic acid (EDTA), 1% ethylene glycol, 0.1% pluronic F-68 (pH 8.0)). The eluted fractions were pooled and preserved at −80° C.
as §2, with “PDH” for “PDH (porcine heart PDH complex, Sigma P7032)”, “hPDHK2” for “hPDHK1”, “PDH/hPDHK2” for “PDH/hPDHK1”
The test compounds were diluted with DMSO. To measure an inhibitory action of the test compound on the PDHK activity in the PDH/hPDHK2 complex solution, PDH/hPDHK2 complex solution (20 μL), test compound (1.5 μL) and 1.06 μmol/L ATP (diluted with assay buffer) (8.5 μL) were added to a 384 well microplate and PDHK reaction was performed at room temperature for 45 min (test compound well). DMSO (1.5 μL) was added to control wells instead of test compound. In addition, DMSO (1.5 μL) was added to blank wells instead of the test compound, and PDH solution was added instead of the PDH/hPDHK2 complex solution. To measure an inhibitory action of the test compound on the PDHK activity inherent in the PDH solution, a test compound was added and the PDH solution instead of the PDH/hPDHK2 complex solution was added to a blank+test compound well.
Then, 10 μL of substrates (5 mmol/L sodium pyruvate, 5 mmol/L Coenzyme A, 12 mmol/L NAD, 5 mmol/L thiamine pyrophosphate, diluted with assay buffer) were added. The mixture was incubated at room temperature for 90 min, and the residual PDH activity was measured. […]

Chain of human PDHK1 (hPDHK1) (Q15118 29-436): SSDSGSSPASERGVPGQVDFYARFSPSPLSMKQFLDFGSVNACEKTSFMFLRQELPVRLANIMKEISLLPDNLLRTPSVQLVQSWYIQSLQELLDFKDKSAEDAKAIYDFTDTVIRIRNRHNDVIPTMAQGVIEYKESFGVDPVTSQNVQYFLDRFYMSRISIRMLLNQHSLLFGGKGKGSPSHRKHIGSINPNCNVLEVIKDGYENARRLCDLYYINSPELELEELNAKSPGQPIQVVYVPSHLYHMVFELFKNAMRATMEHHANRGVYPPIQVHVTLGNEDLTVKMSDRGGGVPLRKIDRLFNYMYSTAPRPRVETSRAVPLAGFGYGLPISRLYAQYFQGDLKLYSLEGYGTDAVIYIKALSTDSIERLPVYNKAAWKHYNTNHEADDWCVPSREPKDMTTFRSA

SMILES | IC50 (human PDHK1 (hPDHK1)) [nM] | IC50 (human PDHK2 (hPDHK2)) [nM] | inhibition at 0.003 µM (human PDHK1 (hPDHK1)) [%]
C[C@H]1CN(C(=O)c2cc(-c3ccccc3)nn2C)Cc2nnc([C@@](C)(O)C(F)(F)F)n21 [Example 122, ((S)-5-methyl-3-((R)-1,1,1-trifluoro-2-hydroxypropan-2-yl)-5,6-dihydro-[1,2,4]triazolo[4,3-a]pyrazin-7(8H)-yl)(1-methyl-3-phenyl-1H-pyrazol-5-yl)methanone] | 5 | 7 | –
C[C@H]1CN(C(=O)c2ccnc(-c3ccc(F)cc3C#N)c2)Cc2cnc([C@@](C)(O)C(F)(F)F)n21 [Example 54] | < 3 | 5 | 53
C[C@H]1CN(C(=O)c2ccc(F)cc2C2CC2)Cc2cnc([C@@](C)(O)C(F)(F)F)n21 [Example 27] | 9 | 8 | –
C[C@H]1CN(C(=O)c2ccc(C3CC3)nc2)Cc2cnc([C@@](C)(O)C(F)(F)F)n21 [Example 30] | 20 | 13 | –
CC(=O)N1CCc2ccccc2[C@H]1C(=O)N1Cc2onc([C@@](C)(O)C(F)(F)F)c2[C@@H](C)C1 [Example 107] | 5 | 6 | –
C[C@H]1CN(C(=O)c2cc(-c3ccc(F)cc3)n[nH]2)Cc2cnc([C@@](C)(O)C(F)(F)F)n21 [Example 34] | 10 | 13 | –
C[C@H]1CN(C(=O)c2cc3ccccc3o2)Cc2cnc([C@@](C)(O)C(F)(F)F)n21 [Example 13] | 29 | 36 | –
C[C@H]1CN(C(=O)c2ccnc(-c3ccc(C#N)cc3)c2F)Cc2cnc([C@@](C)(O)C(F)(F)F)n21 [Example 78] | 4 | 7 | –
C[C@H]1CN(C(=O)c2cccc(-c3ccc(C#N)cc3)n2)Cc2cnc([C@@](C)(O)C(F)(F)F)n21 [Example 43] | < 3 | 5 | 52
C[C@H]1CN(C(=O)c2ccc(C#N)c(C3CC3)c2)Cc2cnc([C@@](C)(O)C(F)(F)F)n21 [Example 28] | 12 | 10 | –
C[C@H]1CN(C(=O)c2ccnc(-c3ccc(C#N)cc3F)c2)Cc2cnc([C@@](C)(O)C(F)(F)F)n21 [Example 62] | 3 | 4 | –
C[C@H]1CN(C(=O)c2cnc(C3CC3)nc2)Cc2cnc([C@@](C)(O)C(F)(F)F)n21 [Example 94] | 40 | 24 | –
C[C@H]1CN(C(=O)c2[nH]nc(C3CC3)c2Cl)Cc2onc([C@@](C)(O)C(F)(F)F)c21 [Example 112] | 3 | 5 | –
Cc1c(-c2ccc(C#N)cc2)nn(C)c1C(=O)N1Cc2cnc([C@@](C)(O)C(F)(F)F)n2[C@@H](C)C1 [Example 76] | 6 | 9 | –
C[C@H]1CN(C(=O)c2ncncc2-c2ccc(F)cc2)Cc2cnc([C@@](C)(O)C(F)(F)F)n21 [Example 97] | 63 | 26 | –
C[C@H]1CN(C(=O)c2cc(C#N)nn2C2CC2)Cc2onc([C@@](C)(O)C(F)(F)F)c21 [Example 114] | 5 | 7 | –
C[C@H]1CN(C(=O)c2ccnc(-c3ccc(C#N)cc3)c2)Cc2cnc([C@@](C)(O)C(F)(F)F)n21 [Example 67] | 5 | 7 | –
C[C@H]1CN(C(=O)c2nn(C)c3cc(C#N)ccc23)Cc2cnc([C@@](C)(O)C(F)(F)F)n21 [Example 5, 1-methyl-3-((S)-5-methyl-3-((R)-1,1,1-trifluoro-2-hydroxypropan-2-yl)-5,6,7,8-tetrahydroimidazo[1,5-a]pyrazine-7-carbonyl)-1H-indazole-6-carbonitrile] | < 3 | 5 | 55
Cc1c(C(=O)N2Cc3cnc([C@@](C)(O)C(F)(F)F)n3[C@@H](C)C2)ccnc1-c1ccc(C#N)cc1 [Example 65] | 4 | 5 | –
C[C@H]1CN(C(=O)c2cncc(-c3ccc(F)cc3C#N)c2)Cc2cnc([C@@](C)(O)C(F)(F)F)n21 [Example 72] | 7 | 9 | –
C[C@H]1CN(C(=O)c2cc(-c3ccc(F)cc3)ccn2)Cc2cnc([C@@](C)(O)C(F)(F)F)n21 [Example 55] | < 3 | 4 | 54

From patent US10800784B2, “Nitrogen-containing heterocyclic amide compound and pharmaceutical use thereof” (Japan Tobacco Inc., priority 2018, dated 2020)
